Measured values taken from ChEMBL document CHEMBL1201862, “PubChem BioAssay data set” (2004).
Calls of active or inactive are those of the source.

What was measured:
[1] = target: T1, Leucine aminopeptidase (Plasmodium falciparum 3D7, UniProt Q8IL11); experiment: P. falciparum M17LAP inhibitors, primary screen, biochemical, fluorogenic H-Leu-NHMec substrate, 1536-well (AID 1619); type: functional
T1 sequence (Q8IL11 whole entry): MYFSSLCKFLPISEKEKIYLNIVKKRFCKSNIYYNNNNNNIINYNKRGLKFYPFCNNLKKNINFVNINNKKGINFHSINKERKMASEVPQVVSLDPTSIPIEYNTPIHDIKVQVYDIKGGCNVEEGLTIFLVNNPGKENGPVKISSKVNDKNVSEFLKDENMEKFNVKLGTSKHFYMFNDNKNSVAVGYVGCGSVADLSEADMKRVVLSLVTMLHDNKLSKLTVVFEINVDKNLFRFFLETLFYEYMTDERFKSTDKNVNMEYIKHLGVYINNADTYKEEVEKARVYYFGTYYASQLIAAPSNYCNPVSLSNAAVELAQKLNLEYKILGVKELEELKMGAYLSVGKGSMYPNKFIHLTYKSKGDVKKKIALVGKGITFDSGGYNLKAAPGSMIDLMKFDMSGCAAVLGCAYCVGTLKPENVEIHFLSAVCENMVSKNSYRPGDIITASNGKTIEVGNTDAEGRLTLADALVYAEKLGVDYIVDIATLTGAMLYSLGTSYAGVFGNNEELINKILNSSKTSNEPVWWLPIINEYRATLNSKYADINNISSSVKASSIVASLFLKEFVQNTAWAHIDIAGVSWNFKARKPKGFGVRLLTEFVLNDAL

[2] = target: T2, Coagulation factor XII (Homo sapiens, UniProt P00748); type: functional;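 also: activated factor XIIa alpha cleaving a fluorogenic AMC peptide substrate; inhibitor potency from loss of enzyme activity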
T2 sequence (P00748 whole entry): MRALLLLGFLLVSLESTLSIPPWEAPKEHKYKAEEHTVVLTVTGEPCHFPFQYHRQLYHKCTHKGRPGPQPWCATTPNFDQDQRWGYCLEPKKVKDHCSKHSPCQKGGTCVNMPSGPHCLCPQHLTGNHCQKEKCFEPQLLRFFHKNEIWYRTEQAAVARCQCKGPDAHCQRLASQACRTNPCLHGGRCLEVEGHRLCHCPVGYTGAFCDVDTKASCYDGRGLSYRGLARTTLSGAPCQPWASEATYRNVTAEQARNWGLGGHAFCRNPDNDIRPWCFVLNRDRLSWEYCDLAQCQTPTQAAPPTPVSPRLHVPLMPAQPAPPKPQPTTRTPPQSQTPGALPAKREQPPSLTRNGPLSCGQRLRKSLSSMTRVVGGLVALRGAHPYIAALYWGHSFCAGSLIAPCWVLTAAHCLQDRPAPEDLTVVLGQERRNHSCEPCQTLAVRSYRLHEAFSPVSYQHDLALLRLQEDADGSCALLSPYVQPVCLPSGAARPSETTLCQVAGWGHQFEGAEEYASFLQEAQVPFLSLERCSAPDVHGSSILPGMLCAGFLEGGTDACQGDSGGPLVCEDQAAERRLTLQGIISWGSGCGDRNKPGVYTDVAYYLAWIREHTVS

[3] = target: Large T antigen (Simian virus 40, UniProt P03070); type: functional, Betapolyomavirus macacae;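 also: Confirmatory-stage PubChem screen for compounds that inhibit SV40 T antigen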
[4] = target: T3, Rac GTPase-activating protein 1 (Homo sapiens, UniProt Q9H0H5); experiment: MgcRacGAP GTPase-activating activity inhibitors, confirmation, biochemical, ADP Hunter fluorescence, primary and confirmatory (AID 624330); type: functional
T3 sequence (Q9H0H5 whole entry): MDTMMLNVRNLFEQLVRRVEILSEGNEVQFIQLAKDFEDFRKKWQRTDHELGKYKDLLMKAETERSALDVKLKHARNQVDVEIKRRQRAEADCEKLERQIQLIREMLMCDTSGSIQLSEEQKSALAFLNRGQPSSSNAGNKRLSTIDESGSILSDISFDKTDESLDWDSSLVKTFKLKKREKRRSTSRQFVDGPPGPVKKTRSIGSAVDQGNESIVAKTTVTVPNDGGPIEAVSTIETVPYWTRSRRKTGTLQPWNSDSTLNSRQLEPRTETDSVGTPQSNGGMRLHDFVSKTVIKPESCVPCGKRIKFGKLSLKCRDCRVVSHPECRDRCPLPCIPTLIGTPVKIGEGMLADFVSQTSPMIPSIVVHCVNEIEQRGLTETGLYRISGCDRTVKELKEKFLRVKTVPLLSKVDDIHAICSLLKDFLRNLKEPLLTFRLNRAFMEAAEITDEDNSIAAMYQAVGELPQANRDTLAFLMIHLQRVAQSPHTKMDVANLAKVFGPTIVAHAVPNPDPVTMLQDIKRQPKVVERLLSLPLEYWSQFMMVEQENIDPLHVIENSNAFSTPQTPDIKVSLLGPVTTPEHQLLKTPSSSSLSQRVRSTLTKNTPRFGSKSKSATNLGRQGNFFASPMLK

[5] = target: Genome polyprotein (dengue virus type 2, UniProt P29990); experiment: Dengue-2 NS5 methyltransferase inhibitors, primary screen, biochemical, confirmation dose response (AID 588689); type: functional
[6] = target: Cytochrome P450 3A4 (Homo sapiens, UniProt P08684);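 also: CYP3A4 tested as one member of a cytochrome P450 panel screen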
[7] = target: Cytochrome P450 2C9 (Homo sapiens, UniProt P11712)
[8] = target: T4, Cytochrome P450 1A2 (Homo sapiens, UniProt P05177);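 also: PubChem cytochrome P450 panel assay, CYP1A2 panel member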
T4 sequence (P05177 whole entry): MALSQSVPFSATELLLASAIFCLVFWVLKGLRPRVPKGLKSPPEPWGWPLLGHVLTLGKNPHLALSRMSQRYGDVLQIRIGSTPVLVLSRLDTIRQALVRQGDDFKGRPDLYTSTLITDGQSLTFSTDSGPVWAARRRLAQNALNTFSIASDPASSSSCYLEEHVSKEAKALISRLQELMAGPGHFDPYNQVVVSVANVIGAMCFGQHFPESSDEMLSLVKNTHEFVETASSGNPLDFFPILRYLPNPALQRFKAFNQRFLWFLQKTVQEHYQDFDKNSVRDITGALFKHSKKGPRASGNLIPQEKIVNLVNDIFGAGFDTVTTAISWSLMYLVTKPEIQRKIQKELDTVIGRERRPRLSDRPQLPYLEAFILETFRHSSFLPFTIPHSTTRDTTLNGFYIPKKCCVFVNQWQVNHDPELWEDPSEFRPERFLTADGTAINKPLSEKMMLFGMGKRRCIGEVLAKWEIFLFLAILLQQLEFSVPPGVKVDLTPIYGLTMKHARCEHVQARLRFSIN

[9] = growth suppression of PTEN-null colon cells, dose response, cell-based, HCT116 PTEN knockout (AID 1047); type: functional;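 also: HCT116 colon tumor cells with PTEN knocked out; cells exposed to compound for 60 hours before readout; potency for loss of cell viability measured by luminescence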
[10] = growth suppression of beta-catenin-knockout colon cells, dose response, cell-based, HCT116, human colon tumor (AID 1045); type: functional;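 also: HCT116 colon tumor cells with beta catenin knocked out; cells exposed to compound for 60 hours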
[11] = test system: Streptococcus; experiment: Group A Streptococcus viability loss, dose response, counter-screen for streptokinase expression inhibitor project, luminescence, BacTiterGlo (AID 1915); type: functional, organism-based;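 also: potency for reduction of bacterial viability or growth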
[12] = target: T5, RNA-binding protein pos-1 (Caenorhabditis elegans, UniProt G5EF15); experiment: inhibitors of POS-1/mex-3 RNA binding, dose response, biochemical, fluorescence polarization (AID 1964);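 also: purified POS-1 fused to maltose binding protein made in E. coli; potency of compounds blocking POS-1 binding to fluorescent RNA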
T5 sequence (G5EF15 whole entry): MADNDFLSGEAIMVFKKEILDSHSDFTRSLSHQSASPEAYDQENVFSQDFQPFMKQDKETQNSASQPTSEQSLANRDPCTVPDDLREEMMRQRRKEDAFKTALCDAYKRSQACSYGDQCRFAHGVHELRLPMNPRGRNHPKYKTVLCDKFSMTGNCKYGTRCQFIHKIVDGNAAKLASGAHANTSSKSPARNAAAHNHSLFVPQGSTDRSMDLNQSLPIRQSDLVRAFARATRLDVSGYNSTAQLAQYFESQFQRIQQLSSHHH

[13] = target: T6, Zinc finger protein mex-5 (Caenorhabditis elegans, UniProt Q9XUB2); experiment: MEX-5/TCR-2 RNA interaction inhibitors, dose response, biochemical, C. elegans, fluorescence polarization (AID 1960)
T6 sequence (Q9XUB2 whole entry): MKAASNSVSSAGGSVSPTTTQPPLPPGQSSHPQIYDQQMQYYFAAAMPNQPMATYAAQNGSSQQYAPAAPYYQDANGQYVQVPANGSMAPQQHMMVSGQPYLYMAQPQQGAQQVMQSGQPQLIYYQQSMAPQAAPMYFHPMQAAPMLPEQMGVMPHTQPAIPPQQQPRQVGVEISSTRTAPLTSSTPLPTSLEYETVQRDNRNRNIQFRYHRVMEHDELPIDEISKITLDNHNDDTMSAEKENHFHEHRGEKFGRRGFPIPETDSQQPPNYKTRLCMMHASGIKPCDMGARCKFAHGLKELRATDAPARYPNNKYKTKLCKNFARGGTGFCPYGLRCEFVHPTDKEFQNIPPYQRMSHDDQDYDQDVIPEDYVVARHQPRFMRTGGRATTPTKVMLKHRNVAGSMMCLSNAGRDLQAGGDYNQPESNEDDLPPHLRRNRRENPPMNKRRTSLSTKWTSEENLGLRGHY

[14] = test system: Streptococcus sp. 'group A'; experiment: growth inhibition of control SK(-) GAS strain, dose response, counter-screen for streptokinase expression inhibitor project, luminescence, kanamycin, BacTiterGlo, confirmation (AID 1900); type: functional, organism-based
[15] = target: T7, Streptokinase A (Streptococcus pyogenes serotype M1, UniProt P10520); experiment: S. pyogenes streptokinase expression inhibitors, potency, dose response, plasminogen activation absorbance, OD405 (AID 1914); type: functional, Streptococcus pyogenes M1 GAS;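 also: secreted streptokinase activity via plasminogen activation per viability signal from cell pellet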
T7 sequence (P10520 whole entry): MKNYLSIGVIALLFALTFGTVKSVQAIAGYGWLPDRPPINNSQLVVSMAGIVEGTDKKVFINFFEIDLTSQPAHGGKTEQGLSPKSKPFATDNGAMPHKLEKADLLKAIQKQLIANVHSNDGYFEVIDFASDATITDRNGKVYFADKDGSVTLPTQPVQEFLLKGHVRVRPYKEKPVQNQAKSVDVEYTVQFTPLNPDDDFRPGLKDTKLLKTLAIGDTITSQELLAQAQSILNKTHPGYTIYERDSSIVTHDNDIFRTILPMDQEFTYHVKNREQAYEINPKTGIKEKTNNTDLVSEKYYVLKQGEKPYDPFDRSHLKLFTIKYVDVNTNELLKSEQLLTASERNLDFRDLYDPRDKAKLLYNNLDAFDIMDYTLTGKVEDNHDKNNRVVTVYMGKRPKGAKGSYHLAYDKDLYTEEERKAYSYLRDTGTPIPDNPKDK

[16] = target: Cytochrome P450 2C19 (Homo sapiens, UniProt P33261); experiment: Cytochrome panel assay with activity outcomes. Panel member name: p450-cyp2c19 Compounds with AC50 equal or less than 10 uM are considered active; type: functional; details: read-out: AC50
[17] = HEp-2 cell cytotoxicity, dose response, cytotoxicity control for RSV inhibitor project, HTS (AID 2410); type: functional; details: human respiratory syncytial virus
[18] = Shn3 3'UTR reporter inhibitors, dose response, cell-based, Clone20 osteoblasts, firefly luciferase, cherry-picked (AID 624132); type: functional;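 also: firefly luciferase luminescence from reporter carrying the Shn3 3'UTR in osteoblasts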
[19] = control 3'UTR Renilla luciferase suppression, dose response, counter-screen for Shn3 inhibitor project, cell-based, Clone20-Shn3RL, cherry-picked (AID 624133); type: functional
[20] = target: Luciferin 4-monooxygenase (Photinus pyralis, UniProt P08659); experiment: firefly luciferase enzyme inhibitors, dose response, biochemical, luminescence (AID 1891)
[21] = Luminescence Cell-Based Dose Confirmation HTS to Identify Inhibitors of Platelet Dense Granule Release. [Related pubchem assays: 1663 (Primary HTS), 1678 (Summary of Project)]; type: functional
[22] = target: FAD-linked sulfhydryl oxidase ALR (Homo sapiens, UniProt P55789); experiment: inhibitors of human ALR sulfhydryl oxidase, dose response, biochemical, H2O2 detection, luminescence, cherry-pick (AID 493248)
FAD-linked sulfhydryl oxidase ALR, sequence (P55789 whole entry): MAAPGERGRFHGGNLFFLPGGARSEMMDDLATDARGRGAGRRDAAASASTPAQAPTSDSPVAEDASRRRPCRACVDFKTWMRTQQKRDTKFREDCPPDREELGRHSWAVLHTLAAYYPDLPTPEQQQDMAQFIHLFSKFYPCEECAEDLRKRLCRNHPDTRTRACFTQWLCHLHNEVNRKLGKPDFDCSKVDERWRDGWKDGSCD

Genome polyprotein, sequence (P29990 2492-3391 limits assumed): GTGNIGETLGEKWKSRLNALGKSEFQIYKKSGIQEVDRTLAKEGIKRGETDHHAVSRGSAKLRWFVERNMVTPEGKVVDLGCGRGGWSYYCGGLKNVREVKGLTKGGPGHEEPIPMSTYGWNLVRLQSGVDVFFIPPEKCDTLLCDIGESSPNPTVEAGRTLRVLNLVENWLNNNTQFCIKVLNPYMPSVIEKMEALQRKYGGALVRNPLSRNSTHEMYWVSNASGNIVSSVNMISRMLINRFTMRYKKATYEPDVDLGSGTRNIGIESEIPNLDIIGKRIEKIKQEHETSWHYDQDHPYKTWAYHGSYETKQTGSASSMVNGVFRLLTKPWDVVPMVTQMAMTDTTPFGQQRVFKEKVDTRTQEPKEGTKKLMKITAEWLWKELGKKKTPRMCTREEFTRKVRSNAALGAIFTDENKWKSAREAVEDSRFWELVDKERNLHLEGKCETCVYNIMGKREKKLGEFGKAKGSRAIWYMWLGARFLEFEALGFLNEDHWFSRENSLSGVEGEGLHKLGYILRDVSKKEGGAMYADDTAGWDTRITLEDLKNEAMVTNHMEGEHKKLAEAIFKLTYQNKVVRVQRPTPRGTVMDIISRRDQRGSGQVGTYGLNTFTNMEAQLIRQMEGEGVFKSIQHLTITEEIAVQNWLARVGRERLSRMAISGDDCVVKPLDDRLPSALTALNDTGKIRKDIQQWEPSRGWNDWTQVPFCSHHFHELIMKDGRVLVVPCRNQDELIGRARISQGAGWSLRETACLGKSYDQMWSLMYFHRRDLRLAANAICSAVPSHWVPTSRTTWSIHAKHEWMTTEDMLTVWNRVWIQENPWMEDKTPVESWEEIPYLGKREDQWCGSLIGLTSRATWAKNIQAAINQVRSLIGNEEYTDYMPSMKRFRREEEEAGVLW
Large T antigen, sequence (P03070 whole entry): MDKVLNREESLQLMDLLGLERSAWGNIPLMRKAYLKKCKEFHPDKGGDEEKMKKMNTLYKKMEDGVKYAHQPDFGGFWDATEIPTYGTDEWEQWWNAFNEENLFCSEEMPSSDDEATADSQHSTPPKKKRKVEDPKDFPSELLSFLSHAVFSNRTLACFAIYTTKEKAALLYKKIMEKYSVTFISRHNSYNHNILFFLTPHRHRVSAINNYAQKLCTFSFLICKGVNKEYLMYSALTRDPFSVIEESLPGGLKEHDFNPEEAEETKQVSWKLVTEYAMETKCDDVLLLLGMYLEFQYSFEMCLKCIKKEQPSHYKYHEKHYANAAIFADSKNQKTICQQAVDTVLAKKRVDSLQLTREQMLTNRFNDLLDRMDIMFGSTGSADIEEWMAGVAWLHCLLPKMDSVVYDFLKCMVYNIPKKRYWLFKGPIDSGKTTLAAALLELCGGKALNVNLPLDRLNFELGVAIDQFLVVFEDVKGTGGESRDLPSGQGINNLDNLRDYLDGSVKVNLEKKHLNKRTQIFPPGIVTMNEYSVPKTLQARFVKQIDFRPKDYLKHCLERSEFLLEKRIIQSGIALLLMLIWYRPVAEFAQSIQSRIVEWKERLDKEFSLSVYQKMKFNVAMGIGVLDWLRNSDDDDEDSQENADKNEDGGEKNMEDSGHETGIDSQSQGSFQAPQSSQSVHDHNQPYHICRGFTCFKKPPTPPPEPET
Cytochrome P450 3A4, sequence (P08684 whole entry): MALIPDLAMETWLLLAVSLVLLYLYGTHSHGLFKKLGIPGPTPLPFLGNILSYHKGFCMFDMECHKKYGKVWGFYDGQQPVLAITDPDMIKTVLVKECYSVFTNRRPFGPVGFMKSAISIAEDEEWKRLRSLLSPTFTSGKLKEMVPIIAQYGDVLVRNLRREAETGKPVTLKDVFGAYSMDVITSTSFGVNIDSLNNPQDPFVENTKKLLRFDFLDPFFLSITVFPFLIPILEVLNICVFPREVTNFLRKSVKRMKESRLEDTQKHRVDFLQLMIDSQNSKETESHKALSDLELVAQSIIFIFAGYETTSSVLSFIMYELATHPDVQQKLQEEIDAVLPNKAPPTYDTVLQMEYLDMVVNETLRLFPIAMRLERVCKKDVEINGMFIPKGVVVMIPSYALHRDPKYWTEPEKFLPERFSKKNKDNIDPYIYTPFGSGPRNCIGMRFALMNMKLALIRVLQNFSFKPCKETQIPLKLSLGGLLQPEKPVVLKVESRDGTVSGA
Cytochrome P450 2C9, sequence (P11712 whole entry): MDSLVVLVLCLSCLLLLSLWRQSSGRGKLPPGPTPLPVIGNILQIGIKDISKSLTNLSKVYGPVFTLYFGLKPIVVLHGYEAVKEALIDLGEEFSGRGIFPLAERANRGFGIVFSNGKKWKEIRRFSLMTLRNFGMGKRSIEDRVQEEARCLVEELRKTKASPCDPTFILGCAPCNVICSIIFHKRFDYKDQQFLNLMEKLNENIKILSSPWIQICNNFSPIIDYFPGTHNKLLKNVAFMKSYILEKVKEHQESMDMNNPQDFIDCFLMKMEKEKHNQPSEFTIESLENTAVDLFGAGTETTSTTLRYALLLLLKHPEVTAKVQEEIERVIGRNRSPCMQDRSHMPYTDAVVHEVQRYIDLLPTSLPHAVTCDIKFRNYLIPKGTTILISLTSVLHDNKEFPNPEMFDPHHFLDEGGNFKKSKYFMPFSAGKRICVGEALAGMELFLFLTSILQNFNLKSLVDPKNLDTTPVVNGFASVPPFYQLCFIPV
Cytochrome P450 2C19, sequence (P33261 whole entry): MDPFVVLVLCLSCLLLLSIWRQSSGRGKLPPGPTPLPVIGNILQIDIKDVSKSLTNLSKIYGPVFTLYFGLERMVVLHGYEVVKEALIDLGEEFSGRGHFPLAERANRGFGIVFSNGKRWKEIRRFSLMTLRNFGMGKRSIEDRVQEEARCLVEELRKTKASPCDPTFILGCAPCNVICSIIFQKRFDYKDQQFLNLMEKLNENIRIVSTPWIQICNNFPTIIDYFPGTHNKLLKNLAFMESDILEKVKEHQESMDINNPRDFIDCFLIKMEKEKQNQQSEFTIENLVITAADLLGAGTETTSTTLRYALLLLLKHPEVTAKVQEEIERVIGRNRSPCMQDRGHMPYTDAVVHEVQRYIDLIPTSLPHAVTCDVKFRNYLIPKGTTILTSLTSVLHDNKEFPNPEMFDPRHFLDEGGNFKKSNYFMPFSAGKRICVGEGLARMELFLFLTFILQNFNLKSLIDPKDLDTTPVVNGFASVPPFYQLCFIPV
Luciferin 4-monooxygenase, sequence (P08659 whole entry): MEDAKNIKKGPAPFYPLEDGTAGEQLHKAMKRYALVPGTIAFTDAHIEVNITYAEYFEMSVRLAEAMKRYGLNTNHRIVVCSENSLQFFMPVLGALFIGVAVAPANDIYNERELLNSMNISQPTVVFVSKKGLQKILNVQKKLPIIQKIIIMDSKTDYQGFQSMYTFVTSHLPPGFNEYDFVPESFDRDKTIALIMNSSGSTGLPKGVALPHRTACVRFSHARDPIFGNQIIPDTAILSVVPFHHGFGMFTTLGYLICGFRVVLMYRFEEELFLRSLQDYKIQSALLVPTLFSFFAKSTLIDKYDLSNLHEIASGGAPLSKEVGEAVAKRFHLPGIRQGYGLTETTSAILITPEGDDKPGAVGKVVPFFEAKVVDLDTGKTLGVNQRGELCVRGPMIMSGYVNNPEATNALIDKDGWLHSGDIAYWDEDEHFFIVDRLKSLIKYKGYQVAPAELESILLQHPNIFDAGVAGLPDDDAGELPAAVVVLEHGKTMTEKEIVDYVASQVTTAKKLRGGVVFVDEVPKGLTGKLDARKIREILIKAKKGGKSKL

Clc1ccccc1CNc1ncnc2nc[nH]c12
IC50 [1]: 48.3 µM (active)

O=C(CN=C(S)N(Cc1ccccc1)Cc1ccccc1F)NCCc1ccccc1
IC50 [2]: > 50 µM (inactive)

CCNc1ccc(N=Nc2c(C)n(C)n(-c3ccccc3)c2=O)cc1
IC50 [3]: 7.88 µM (active)

O=C(N/N=C/c1ccc(O)c(O)c1)c1cccc(S(=O)(=O)N2CCCCC2)c1
IC50 [3]: 4.75 µM (active)
IC50 [4]: 85.3 µM (active)

Cc1ccc2cc(C=C3C(=O)NC(=O)NC3=O)c(O)nc2c1
IC50 [3]: > 100 µM (active)
IC50 [5]: 79 µM (active)

CC(=O)Nc1ccc(NC(=O)CSc2ncnn2-c2ccccc2)cc1
AC50 [6]: 28.2 µM (inconclusive)
AC50 [7]: 12.6 µM (inconclusive)
IC50 [2]: > 50 µM (inactive)
AC50 [8]: 28.2 µM (inconclusive)

Nc1nc(-c2cccs2)c(NC(=O)c2ccccc2)s1
EC50 [9]: 27.4 µM (active)
IC50 [3]: 23.2 µM (active)
EC50 [10]: 23.8 µM (active)

O=C(N/N=C/c1cc(Cl)cc([N+](=O)[O-])c1O)C(O)(c1ccccc1)c1ccccc1
EC50 [11]: 7.21 µM (active)
EC50 [12]: > 300 µM (not active)
EC50 [13]: 40.2 µM (active)
EC50 [14]: 3.8 µM (active)
EC50 [15]: > 150 µM (not active)

O=C(c1ccc2ncsc2c1)N1CCN(c2ccc(O)cc2)CC1
AC50 [6]: 3.55 µM (inconclusive)
AC50 [7]: 1.78 µM (inconclusive)
AC50 [16]: 20 µM (inconclusive)
IC50 [3]: 14.4 µM (active)

Cc1sc(NC(=O)c2ccco2)c(CN2CCN(c3ccc(F)cc3)CC2)c1C
IC50 [2]: > 50 µM (inactive)

COCCNC(=O)CC(NS(=O)(=O)c1ccc(C)cc1)c1ccco1 (stereo not given)
IC50 [2]: > 50 µM (inactive)

Cc1ccc2nc(NC(=O)C3CCCN(S(=O)(=O)c4cccc5nsnc45)C3)sc2c1 (stereo not given)
CC50 [17]: 29.4 µM (active)
IC50 [2]: > 50 µM (inactive)

O=C1NC(=S)N(c2ccccc2F)C(=O)/C1=C/Nc1ccc(N2CCOCC2)cc1
IC50 [3]: 4.54 µM (active)

O=C1NCCOC(=O)[C@@H](Cc2ccc(F)cc2)CC/C=C/C[C@@H]1CC(=O)N(CCO)Cc1ccccc1
AC50 [18]: > 70 µM (inactive)
AC50 [19]: 29.6 µM (active)

CC(C)c1cccc(-c2ccc3c(c2)S(=O)(=O)c2cccc(C(=O)O)c2C3=O)c1
IC50 [5]: 66.2 µM (active)

CC1CCOC2(O1)C(=O)Nc1ccccc12 (stereo not given)
IC50 [2]: > 50 µM (inactive)

Cc1c(C(=O)N2CCOCC2)sc2ncnc(N3CCc4ccccc4C3)c12
EC50 [20]: > 112 µM (not active)
IC50 [2]: > 50 µM (inactive)
EC50 [21]: > 112 µM (not active)

C/N=c1\scc(C)n1/N=C/c1ccc(O)cc1
IC50 [3]: 8.35 µM (active)
IC50 [4]: 20.9 µM (active)

O=C(NNc1cc(Br)c(O)c(Br)c1)c1ccccc1
AC50 [22]: 0.192 µM (active)
IC50 [5]: 63.2 µM (active)

COC(=O)CC1C(=O)NCCN1C(=S)Nc1cccc(C)c1 (stereo not given)
IC50 [2]: > 50 µM (inactive)
